Measured values from patent US20230103444A1 (The Regents of the University of Colorado, a Body Corporate, priority 2020, published 2023).
In brackets after ≈: the same amount, converted by molar mass. Entries after “also recorded” stand apart in the source; their conditions may differ.

Experiments:
PDTO CRC102 = assay: PDTO viability assay (CellTiter-Blue); format: cell-based; settings: Homo sapiens, 72 h, read-out: cytotoxicity EC50
Method: CRC patient tumor tissues were obtained from the UCCC GI tissue bank and expanded following established protocols. [Morin et al., 1997]. Briefly, cells were seeded at 5,000 cells per well in 96-well plates and cultured by established methods [Franken et al., 2006] allowing PDTO formation over 72 h. […] PDTO cell viability was measured using CellTiter-Blue® reagent (Promega, Madison, Wis.). Media (80 μL) was aspirated from wells and 80 μL of the reagent was added and incubated for 4 h and cell viability was measured by fluorescence intensity using excitation 560 excitation and 590 emission.

DLD1CHD1L-OE cells = assay: DNA damage by γ-H2AX immunofluorescence; format: cell-based, human; settings: 6 h; for DNA damage (γ-H2AX), combination with SN-38: compound 10 μM + SN-38 1 μM, vs SN-38 alone
Method: (§1) DLD1^CHD1L-OE cells were seeded into a 96-well PerkinElmer Cell Carrier plate and allowed to adhere overnight. Cells were then treated with the appropriate compound at 10 μM (0.5% DMSO) or with CHD1L inhibitor in combination SN-38 (1 μM), oxaliplatin (10 μM), and etoposide (10 μM). Cells were treated for 6 h. Media was aspirated and cells were washed with cold PBS. Cells were then fixed with 3% paraformaldehyde for 15 min at room temperature, fixed cells were washed with PBS three times. Cells were blocked for 1 hour at room temperature in 5% BSA, 0.3% Triton X-100 in PBS. Cells were then immunostained with phospho-(S139)-g-H2AX rabbit mAb using a 1:800 dilution in 1% BSA, 0.3% Triton X-100 in PBS at 4° C. overnight. Primary antibody was aspirated and cells were washed with PBS. Cells were incubated for 2 h at room temperature with goat anti-rabbit Alexa Fluor Plus™ 647 fluorescent secondary antibody at a concentration of 5 μg/mL in 1% BSA, 0.3% Triton X-100 in PBS. Cells were then washed with PBS, Hoechst 33342 stain was diluted to a concentration of 1:1000 in PBS, and added to cells for 15 min at room temperature. Cells were then imaged using a 20× water objective on the Opera Phenix™ HCS imaging system (PerkinElmer). Synergy was determined using the coefficient of drug interaction (CDI) equation, CDI=(A+B)/(AB). Synergy was defined in these experiments with a CDI<0.8. Additivity was 0.8-1.2 and antagonism was defined by a CDI>1.2.
(§2) γ-H2AX DNA damage combination studies with irinotecan (SN38). CHD1L inhibitor 6 alone and in combination with SN38 was assessed for DNA damage as previously reported [Abbott et al., 2020; Abraham et al., 2019]. Using DLD1 colorectal cancer cells that have low CHD1L endogenous expression and DLD1 cells engineered to overexpress CHD1L, DNA damage studies were conducted measuring the immunofluorescence of γ-H2AX, a well-established biomarker of DNA damage [Ji et al., 2017; Ivashkevich et al., 2012]. […] Media was aspirated and cells were washed with cold PBS. Cells were then fixed with 3% paraformaldehyde for 15 min at room temperature and washed with PBS three times. Cells were blocked for 1 hour at room temperature in 5% BSA, 0.3% Triton X-100 in PBS. Cells were then immunostained with phospho-(S139)-γ-H2AX rabbit mAb using a 1:800 dilution in 1% BSA, 0.3% Triton X-100 in PBS at 4° C. overnight. Primary antibody was aspirated, and cells were washed with PBS. Cells were incubated for 2 hours at room temperature with goat anti-rabbit Alexa Fluor Plus™ 647 fluorescent secondary antibody at a concentration of 5 μg/mL in 1% BSA, 0.3% Triton X-100 in PBS. Cells were then washed with PBS; Hoechst 33342 stain was diluted to a concentration of 1:1000 in PBS and added to cells for 15 min at room temperature. Cells were then imaged using a 20× water objective on the PerkinElmer Phenix HCS imaging system. […] CDI=(A+B)/(AB), synergy was determined with a CDI<0.8, additivity was 0.8-1.2, and antagonism was defined by a CDI>1.2. Welch's t-test statistical analysis was used to determine significance, where **=P≤0.01.

DLD1CHD1L-EV cells = assay: DNA damage by γ-H2AX immunofluorescence; format: cell-based, human; settings: low CHD1L expressing cells
Method: as §1, §2

[1] = Aqueous solubility in PBS; format: physicochemical; settings: aqueous with cosolvent or surfactant or cyclodextrin; 10% DMSO in PBS (pH 7.4)
Method: The measurement of solubility in PBS was conducted in duplicate experiments. The consensus LogP (CLogP) values were obtained using the SwissADME web tools. [Daina et al., 2017]

[2] = Accumulation in SW620 xenograft tumors and liver; format: in vivo, athymic nude mice; settings: 50 mg/kg i.p. QD 5 days, n=4
Method: Growth was monitored with caliper measurements 3× per week. […] Treatments were administered i.p. QD over five days. Mice were sacrificed 2 h after the final dose on day five of the treatment.

TCF-transcription = assay: TOPflash TCF-transcriptional reporter assay; format: cell-based, human; settings: TOPflash reporter in CRC cell lines (SW620, HCT116, DLD1CHD1L-OE), 24 h; listed as 8
Method: TOPflash assay (Millipore, Billerica, Mass.) was used to evaluate TCF transcriptional activity in CRC cells. A total of 20,000 cells per well were plated into 96-well white plates and transfected with TransIT®-LT1 transfection reagent (Mirus, Madison, Wis.). Cells were incubated with transfection mix for 24 h. Next, cells were washed with phosphate-buffered solution (PBS) and a 1:1 ratio of PBS:ONE-Glo™ luciferase reagent Promega (Madison, Wis.) was added and the luminescence was detected within 10 min. A duplicate experiment was conducted to measure cell viability using CellTiter-Glo® Luminescent Cell Viability Assay (Promega, Madison, Wis.), which was used to normalize TOPflash luminescence to obtain the fold change in TCF activity. Experiments were replicated 2× (n=3 for each experiment).
TCF-transcriptional Reporter Assay. […] Afterwards, cells from the white solid bottom plate were carefully washed with PBS and a 1:1 ratio of PBS:One-Glo Luciferase Assay System (Promega) was added, incubated for 10 min, and luminescence was quantified on Envision plate reader (PerkinElmer) for TCF-activity. As a control, cells from the clear plate were lysed with Mammalian Cell Lysis Buffer (Promega) and the total protein from each well was quantified with BCA assay (ThermoFisher).

Cc1cc(Nc2ccc(NC(=O)Cc3cccs3)cc2)nc(N2CCCC2)n1 [Compound 6, N-(4-((6-methyl-2-(pyrrolidin-1-yl)pyrimidin-4-yl)amino)phenyl)-2-(thiophen-2-yl)acetamide]
EC50 (PDTO CRC102): 11.6 ± 2 µM
DNA damage (γ-H2AX activity), compound alone (DLD1CHD1L-OE cells; 10 μM): no significant DNA damage
DNA damage (γ-H2AX), combination with SN-38 (DLD1CHD1L-OE cells): synergized
DNA damage (γ-H2AX), combination with SN-38 (DLD1CHD1L-OE cells; listed as 6.0): synergy
DNA damage (γ-H2AX), combination with etoposide (DLD1CHD1L-OE cells; compound 10 μM + etoposide 10 μM, vs etoposide alone): synergized
DNA damage (γ-H2AX), combination with oxaliplatin (DLD1CHD1L-OE cells; compound 10 μM + oxaliplatin 10 μM): no synergy
DNA damage (γ-H2AX), combination with SN38 (DLD1CHD1L-EV cells): nor does it synergize with SN38
DNA damage (γ-H2AX), compound alone (DLD1CHD1L-EV cells): does not induce significant DNA damage
DNA damage (γ-H2AX), combination with etoposide (DLD1CHD1L-EV cells; etoposide 10 μM): significant synergy
solubility [1]: 700 µg/mL (≈ 1780 µM)
concentration accumulated in SW620 tumors [2]: 10,533±5,579 ng/mL

Cc1cc(Nc2ccc(NC(=O)c3c[nH]c4ccccc34)cc2)nc(N2CCCC2)n1 [Compound 6.3, N-(4-((6-methyl-2-(pyrrolidin-1-yl)pyrimidin-4-yl)amino)phenyl)-1H-indole-3-carboxamide]
inhibition of TCF-transcription, in words (TCF-transcription): potent low μM dose-dependent inhibition; also recorded: more potent dose dependent inhibition
